Among the data in ChEMBL document CHEMBL1201862, “PubChem BioAssay data set” (2004) are IC50 values, retold here.

Active and inactive are the calls of the source. Cut-off read from the data, not from the text of the source: actives have a measured IC50 and inactives only a lower limit.

By IC50 is commonly meant the concentration at which inhibition is half-maximal.

Envelope glycoprotein gp160, sequence (Q6QLK5 whole entry, the tested form may be a part): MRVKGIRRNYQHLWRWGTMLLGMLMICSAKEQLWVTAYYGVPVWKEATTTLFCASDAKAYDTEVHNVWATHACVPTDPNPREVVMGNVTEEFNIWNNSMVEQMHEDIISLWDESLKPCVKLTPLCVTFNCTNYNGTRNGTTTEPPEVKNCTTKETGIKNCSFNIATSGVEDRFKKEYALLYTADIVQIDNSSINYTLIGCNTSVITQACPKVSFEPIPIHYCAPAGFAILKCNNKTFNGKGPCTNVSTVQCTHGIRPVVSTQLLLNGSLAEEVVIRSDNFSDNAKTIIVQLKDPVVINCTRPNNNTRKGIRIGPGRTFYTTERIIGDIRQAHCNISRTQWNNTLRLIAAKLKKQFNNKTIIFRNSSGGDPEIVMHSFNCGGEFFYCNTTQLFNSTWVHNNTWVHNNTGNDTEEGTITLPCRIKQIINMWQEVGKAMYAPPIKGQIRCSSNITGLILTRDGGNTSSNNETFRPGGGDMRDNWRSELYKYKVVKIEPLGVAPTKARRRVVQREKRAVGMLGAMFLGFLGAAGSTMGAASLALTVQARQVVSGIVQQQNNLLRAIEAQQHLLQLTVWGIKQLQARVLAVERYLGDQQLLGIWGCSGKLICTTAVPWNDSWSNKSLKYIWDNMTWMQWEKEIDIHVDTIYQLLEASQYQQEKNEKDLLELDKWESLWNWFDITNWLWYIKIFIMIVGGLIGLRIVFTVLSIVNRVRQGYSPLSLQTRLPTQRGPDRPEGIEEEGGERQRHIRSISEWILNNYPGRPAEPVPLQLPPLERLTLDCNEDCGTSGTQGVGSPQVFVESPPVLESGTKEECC

This assay has as its target Envelope glycoprotein gp160 (Human immunodeficiency virus 1, UniProt Q6QLK5). Kind of assay: inhibitors of HIV fusion peptide binding, primary screen, biochemical, uHTS, fluorescence dequenching (AID 1986).
Consider `Cc1ccccc1N/N=C/c1sc(=O)n(Cc2cccc(C(=O)O)c2)c1Cl`, for which the IC50 was 15.6 µM (active). In the case of `COc1cc(/C=C2/C(=O)NN(c3ccc(Cl)cc3)C2=O)ccc1OC(=O)c1ccco1`, the half-maximal inhibitory concentration (IC50) was 11.8 µM (active).

Consider `O=C(O)CN1C(=O)/C(=C\c2cc(Br)ccc2OCc2ccc(Cl)cc2)SC1=S`, for which the half-inhibitory concentration (IC50) is 14.3 µM (active). Consider `COc1ccccc1/C=C1\SC(=S)N(CCC(=O)Nc2ccc(C(=O)O)c(O)c2)C1=O`, for which the IC50 was 14.5 µM (active). The value for `CCOC(=O)c1sc(N2C(=O)C(O)=C(C(=O)c3ccco3)C2c2cccc([N+](=O)[O-])c2)nc1C` (stereo unspecified) was 19 µM (active); that for `O=C(O)CCn1cc(/C=C/C(=O)c2ccc(Cl)cc2)c(-c2ccc(Br)cc2)n1` was 21.4 µM (active).
